Read-outs that look alike come from different tables or passages of the source. Numbered stars: 1 amine (or outer) side, 2 acyl side, 3 side chain; on linkers, the order of the positions; unused ones are H or OH. Square brackets hold non-standard residues; d marks the D form. Side chains are listed from the residue outwards. Peptide text beside a SMILES is read from it. * marks the point of attachment. C18 diacid = O=C(O)CCCCCCCCCCCCCCCCC(=O)*; C16 diacid = O=C(O)CCCCCCCCCCCCCCC(=O)*; γGlu = O=C(O)[C@H](CCC(=O)[*:2])N[*:1]; Met(O2) = CS(=O)(=O)CC[C@H](N)C(=O)O; αMeD = C[C@](N)(CC(=O)O)C(=O)O; αMeS = C[C@](N)(CO)C(=O)O; AEEA = NCCOCCOCC(=O)O; Aib = CC(C)(N)C(=O)O
Columns and labels:
human GCGR = molecular target: T1, human GCGR (Homo sapiens, UniProt P47871); experiment: cAMP activity assay at the Glucagon receptor (GCGR); type: cell-based; conditions: for hGCGR/hGLP1R (hTone): ratio of GCGR EC50 to GLP1R EC50
T1 construct: expressed in transfected cells; growth medium holds Blasticidin and Hygromycin
Procedure, shortened: (§1)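 Peptides serially diluted from DMSO (10 points) and added to frozen-stock cells bearing human GLP1R (10,000 cells/well) or GCGR (30,000 cells/well), 1 h at RT, dark. EC50 by four-parameter logistic fit of HitHunter cAMPXS luminescence, read following overnight RT incubation.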

human GLP1R = molecular target: T2, human GLP1R (Homo sapiens, UniProt P43220); experiment: cAMP activity assay at the GLP-1 receptor (GLP1R); type: cell-based
T2 construct: expressed in transfected cells; growth medium holds Blasticidin and Hygromycin
Procedure, shortened: as §1

[1] = cells expressing human GCGR, cAMP production, buffer with or without 20% human serum (not stated which), read-out: GCGR EC50 human
[2] = cells expressing human GLP1R, cAMP production, buffer with or without 20% human serum (not stated which), read-out: GLP1R EC50 human
[3] = summary statement: EC50 at each of the glucagon and GLP-1 receptors, read-out: EC50 at the glucagon receptor
[4] = summary statement: EC50 at each of the glucagon and GLP-1 receptors, read-out: EC50 at the GLP-1 receptor

T1 sequence (P47871 26-477): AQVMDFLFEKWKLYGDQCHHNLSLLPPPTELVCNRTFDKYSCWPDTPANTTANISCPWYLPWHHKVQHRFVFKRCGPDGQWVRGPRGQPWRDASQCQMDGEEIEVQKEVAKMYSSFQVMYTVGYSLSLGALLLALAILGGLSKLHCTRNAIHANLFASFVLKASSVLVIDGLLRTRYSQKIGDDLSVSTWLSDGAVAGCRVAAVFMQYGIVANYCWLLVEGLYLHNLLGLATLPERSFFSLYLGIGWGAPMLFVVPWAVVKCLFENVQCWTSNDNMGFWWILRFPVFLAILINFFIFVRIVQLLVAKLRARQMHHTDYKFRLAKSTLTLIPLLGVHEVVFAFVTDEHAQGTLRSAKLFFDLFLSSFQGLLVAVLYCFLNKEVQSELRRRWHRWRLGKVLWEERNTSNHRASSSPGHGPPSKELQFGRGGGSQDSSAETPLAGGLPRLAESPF
T2 sequence (P43220 24-463): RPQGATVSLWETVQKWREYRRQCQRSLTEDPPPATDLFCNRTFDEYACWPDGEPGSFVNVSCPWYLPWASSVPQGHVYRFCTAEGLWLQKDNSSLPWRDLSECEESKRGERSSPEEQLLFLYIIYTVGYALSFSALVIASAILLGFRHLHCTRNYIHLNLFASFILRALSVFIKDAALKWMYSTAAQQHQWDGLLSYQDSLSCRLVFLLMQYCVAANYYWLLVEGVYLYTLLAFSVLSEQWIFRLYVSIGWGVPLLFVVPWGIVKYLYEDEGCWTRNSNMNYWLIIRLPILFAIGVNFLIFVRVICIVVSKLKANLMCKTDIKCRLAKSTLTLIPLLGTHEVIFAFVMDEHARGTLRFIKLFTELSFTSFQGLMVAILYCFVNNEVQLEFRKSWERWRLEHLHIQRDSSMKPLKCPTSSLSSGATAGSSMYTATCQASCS

Row | Compound | EC50 (human GCGR; [1]) | hGCGR/hGLP1R (hTone) (human GCGR) | EC50 (human GLP1R; [2]) | EC50 (human GCGR; [3]) | EC50 (human GLP1R; [4])
1 | CC(C)C[C@H](NC(=O)[C@H](Cc1ccc(O)cc1)NC(=O)[C@H](CCCCN)NC(=O)[C@H](CO)NC(=O)[C@H](Cc1ccc(O)cc1)NC(=O)[C@H](CC(=O)O)NC(=O)[C@H](CO)NC(=O)[C@@H](NC(=O)[C@H](Cc1ccccc1)NC(=O)[C@@H](NC(=O)CNC(=O)[C@H](CCC(N)=O)NC(=O)C(C)(C)NC(=O)[C@@H](N)Cc1c[nH]cn1)[C@@H](C)O)[C@@H](C)O)C(=O)N[C@@H](CC(=O)O)C(=O)N[C@@H](C)C(=O)N[C@@H](CCCNC(=N)N)C(=O)N[C@@H](C)C(=O)N[C@@H](C)C(=O)N[C@@H](CCCCNC(=O)COCCOCCNC(=O)COCCOCCNC(=O)CC[C@H](NC(=O)CCCCCCCCCCCCCCCCC(=O)O)C(=O)O)C(=O)N[C@@](C)(CC(=O)O)C(=O)N[C@@H](Cc1ccccc1)C(=O)N[C@H](C(=O)N[C@@H](CCC(N)=O)C(=O)N[C@@H](Cc1c[nH]c2ccccc12)C(=O)N[C@@H](CC(C)C)C(=O)N[C@@H](CCS(C)(=O)=O)C(=O)N[C@@](C)(CC(=O)O)C(=O)N[C@H](C(N)=O)[C@@H](C)O)C(C)C [TP611] (H-H[Aib]QGTFTSDYSKYLDARAAK([AEEA-AEEA-γGlu-C18 diacid])[αMeD]FVQWL[Met(O2)][αMeD]T-NH2) | 0.2 nM | <0.02 | > 5 nM |  | 
2 | CC(C)C[C@H](NC(=O)[C@H](Cc1c[nH]c2ccccc12)NC(=O)[C@H](CCC(N)=O)NC(=O)[C@@H](NC(=O)[C@H](Cc1ccccc1)NC(=O)[C@](C)(CC(=O)O)NC(=O)[C@H](CCCCNC(=O)COCCOCCNC(=O)COCCOCCNC(=O)CC[C@H](NC(=O)CCCCCCCCCCCCCCCCC(=O)O)C(=O)O)NC(=O)[C@H](C)NC(=O)[C@H](C)NC(=O)[C@H](CCCNC(=N)N)NC(=O)[C@H](C)NC(=O)[C@](C)(CC(=O)O)NC(=O)[C@H](CC(C)C)NC(=O)[C@H](Cc1ccc(O)cc1)NC(=O)[C@H](CCCCN)NC(=O)[C@H](CO)NC(=O)[C@H](Cc1ccc(O)cc1)NC(=O)[C@H](CC(=O)O)NC(=O)[C@H](CO)NC(=O)[C@@H](NC(=O)[C@H](Cc1ccccc1)NC(=O)[C@@H](NC(=O)CNC(=O)[C@H](CCC(N)=O)NC(=O)C(C)(C)NC(=O)[C@@H](N)Cc1c[nH]cn1)[C@@H](C)O)[C@@H](C)O)C(C)C)C(=O)N[C@@H](CCS(C)(=O)=O)C(=O)N[C@@](C)(CC(=O)O)C(=O)N[C@H](C(N)=O)[C@@H](C)O [TP612] (H-H[Aib]QGTFTSDYSKYL[αMeD]ARAAK([AEEA-AEEA-γGlu-C18 diacid])[αMeD]FVQWL[Met(O2)][αMeD]T-NH2; N-terminus assumed) |  | <0.41 | 4.95 nM | < 5 nM | < 5 nM
3 | CC(C)C[C@H](NC(=O)[C@H](Cc1ccc(O)cc1)NC(=O)[C@H](CCCCN)NC(=O)[C@H](CO)NC(=O)[C@H](Cc1ccc(O)cc1)NC(=O)[C@H](CC(=O)O)NC(=O)[C@H](CO)NC(=O)[C@@H](NC(=O)[C@H](Cc1ccccc1)NC(=O)[C@@H](NC(=O)CNC(=O)[C@H](CCC(N)=O)NC(=O)[C@](C)(CO)NC(=O)[C@@H](N)Cc1c[nH]cn1)[C@@H](C)O)[C@@H](C)O)C(=O)N[C@@H](CC(=O)O)C(=O)N[C@@H](C)C(=O)N[C@@H](CCCNC(=N)N)C(=O)N[C@@H](C)C(=O)N[C@@H](C)C(=O)N[C@@H](CCCCNC(=O)COCCOCCNC(=O)COCCOCCNC(=O)CC[C@H](NC(=O)CCCCCCCCCCCCCCC(=O)O)C(=O)O)C(=O)N[C@@H](CC(=O)O)C(=O)N[C@@H](Cc1ccccc1)C(=O)N[C@H](C(=O)N[C@@H](CCC(N)=O)C(=O)N[C@@H](Cc1c[nH]c2ccccc12)C(=O)N[C@@H](CC(C)C)C(=O)N[C@@H](CCS(C)(=O)=O)C(=O)N[C@@](C)(CC(=O)O)C(=O)N[C@H](C(N)=O)[C@@H](C)O)C(C)C [TP614] (H-H[αMeS]QGTFTSDYSKYLDARAAK([AEEA-AEEA-γGlu-C16 diacid])DFVQWL[Met(O2)][αMeD]T-NH2; N-terminus assumed) | 0.86 nM | 0.6 |  | < 5 nM | < 5 nM

Source: patent publication US11566057B2, “Long-acting co-agonists of the glucagon and GLP-1 receptors” (Merck Sharp & Dohme Corp., priority 2017, dated 2023)
